Our source for the inhibition and fold change (FC) values is ChEMBL document CHEMBL2321862, “Development and evaluation of novel phosphotyrosine mimetic inhibitors targeting the Src homology 2 domain of signaling lymphocytic activation molecule (SLAM) associated protein” (J Med Chem, 2013).

For assay [1], the target named is T1, SH2 domain-containing protein 1A (Homo sapiens) (UniProt O60880).
T1 sequence (whole entry): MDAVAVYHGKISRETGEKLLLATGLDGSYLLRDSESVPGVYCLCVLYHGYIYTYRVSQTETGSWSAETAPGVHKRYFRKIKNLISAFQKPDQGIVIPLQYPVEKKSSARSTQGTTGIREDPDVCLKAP
As to the kind of experiment: Inhibition of recombinant 6-His-tagged SLAM associated protein SH2 domain (unknown origin) expressed in Escherichia coli BL21(DE3) binding to biotinyl-KKSLTIpYAQVQK-NH2 attached to NeutrAvidin-coated plates using p-nitrophenyl phosphate as substrate at 100 uM after 1 hr.

The target of assay [2] is T1, SH2 domain-containing protein 1A (Homo sapiens). As to the kind of experiment: Inhibition of recombinant 6-His-tagged SLAM associated protein SH2 domain (unknown origin) expressed in Escherichia coli BL21(DE3) binding to biotinyl-KKSLTIpYAQVQK-NH2 attached to NeutrAvidin-coated plates using p-nitrophenyl phosphate as substrate at 10 uM after 1 hr relative to control.

SMILES strings stand for the structures. Calls of active or inactive are those of the source. The rule behind the calls is not given here.

As for `NC(=O)[C@H](CC(=O)NC(c1ccccc1)(c1ccccc1)c1ccccc1)NC(=O)[C@H](Cc1ccc2c(c1)COP(=O)(O)O2)NC(=O)OCC1c2ccccc2-c2ccccc21`, in assay [1], the inhibition result is “Active”. The fold change (FC) in assay [2] was 1.03.
As to `CSCC[C@H](NC(=O)[C@H](Cc1ccc2c(c1)COP(=O)(O)O2)NC(=O)OCC1c2ccccc2-c2ccccc21)C(N)=O`, the inhibition entry in assay [1] is “Active”. In assay [2], the fold change (FC) came to 0.91.
`COC(=O)[C@H](Cc1ccc2c(c1)COP(=O)(O)O2)NC(=O)[C@H](CC(N)=O)NC(=O)OCC1c2ccccc2-c2ccccc21`: the inhibition result in assay [1] was “Active”. For the same compound, the fold change (FC) in assay [2] worked out at 0.8.
In the case of `NC(=O)[C@H](CO)NC(=O)[C@H](Cc1ccc2c(c1)COP(=O)(O)O2)NC(=O)OCC1c2ccccc2-c2ccccc21`, the inhibition entry in assay [1] was “Active”. For the same compound, the fold change (FC) in assay [2] is 0.9.
On to `NC(=O)CC[C@H](NC(=O)[C@H](Cc1ccc2c(c1)COP(=O)(O)O2)NC(=O)OCC1c2ccccc2-c2ccccc21)C(N)=O`, for which the inhibition result in assay [1] is “Active”. Besides, in assay [2], the fold change (FC) was determined as 0.99.
For `NC(=O)CNC(=O)[C@H](Cc1ccc2c(c1)COP(=O)(O)O2)NC(=O)OCC1c2ccccc2-c2ccccc21` the same measures were “Active” and 1.07.
Consider `N=C(N)NCCC[C@H](NC(=O)[C@H](Cc1ccc2c(c1)COP(=O)(O)O2)NC(=O)OCC1c2ccccc2-c2ccccc21)C(N)=O`, for which the inhibition entry in assay [1] was “Active”. In addition, the fold change (FC) in assay [2] came out at 0.94.
For `COC(=O)[C@H](Cc1ccc2c(c1)COP(=O)(O)O2)NC(=O)[C@H](Cc1ccc2c(c1)COP(=O)(O)O2)NC(=O)OCC1c2ccccc2-c2ccccc21` the same measures were “Active” and 1.09.
For `COC(=O)[C@H](Cc1ccc2c(c1)COP(=O)(O)O2)NC(=O)[C@H](COC(C)(C)C)NC(=O)OCC1c2ccccc2-c2ccccc21` the same measures were “Active” and 0.85.
For `C[C@@H](OC(C)(C)C)[C@H](NC(=O)[C@H](Cc1ccc2c(c1)COP(=O)(O)O2)NC(=O)OCC1c2ccccc2-c2ccccc21)C(N)=O` the same measures were “Active” and 1.13.
In the case of `CC[C@H](C)[C@H](NC(=O)[C@H](Cc1ccc2c(c1)COP(=O)(O)O2)NC(=O)OCC1c2ccccc2-c2ccccc21)C(N)=O`, in assay [1], the inhibition entry was “Active”. The fold change (FC) in assay [2] came to 1.05.
With `NC(=O)[C@@H]1CCCN1C(=O)[C@H](Cc1ccc2c(c1)COP(=O)(O)O2)NC(=O)OCC1c2ccccc2-c2ccccc21`, in assay [1], the inhibition result was “Active”. Also, in assay [2], the fold change (FC) was found to be 1.05.
With `COC(=O)[C@H](Cc1ccc2c(c1)COP(=O)(O)O2)NC(=O)[C@H](CCC(=O)OC(C)(C)C)NC(=O)OCC1c2ccccc2-c2ccccc21`, the inhibition result in assay [1] is “Active”. Further, the fold change (FC) in assay [2] was 1.1.
`COC(=O)[C@H](Cc1ccc2c(c1)COP(=O)(O)O2)NC(=O)[C@H](CCC(=O)O)NC(=O)OCC1c2ccccc2-c2ccccc21`: in assay [1], the inhibition result is “Active”. Also, the fold change (FC) in assay [2] was determined as 0.95.
For the compound `COC(=O)[C@H](Cc1ccc2c(c1)COP(=O)(O)O2)NC(=O)[C@@H](NC(=O)OCC1c2ccccc2-c2ccccc21)[C@@H](C)OC(C)(C)C`, the inhibition result in assay [1] was “Active”. Also, the fold change (FC) in assay [2] was found to be 0.85.
For `COC(=O)[C@H](Cc1ccc2c(c1)COP(=O)(O)O2)NC(=O)[C@H](CCC(N)=O)NC(=O)OCC1c2ccccc2-c2ccccc21` the same measures were “Active” and 1.09.
For `COC(=O)[C@H](Cc1ccc2c(c1)COP(=O)(O)O2)NC(=O)[C@H](CCCNC(=N)N)NC(=O)OCC1c2ccccc2-c2ccccc21`, the inhibition result in assay [1] was “Active”. The fold change (FC) in assay [2] was 0.91.
Consider `CC(C)[C@H](NC(=O)[C@H](Cc1ccc2c(c1)COP(=O)(O)O2)NC(=O)OCC1c2ccccc2-c2ccccc21)C(N)=O`, for which the inhibition entry in assay [1] is “Active”. The fold change (FC) in assay [2] came to 1.
For `NC(=O)[C@H](CCC(=O)O)NC(=O)[C@H](Cc1ccc2c(c1)COP(=O)(O)O2)NC(=O)OCC1c2ccccc2-c2ccccc21` the same measures were “Active” and 1.31.
Turning to `COC(=O)[C@H](Cc1ccc2c(c1)COP(=O)(O)O2)NC(=O)[C@H](Cc1ccc(OC(C)(C)C)cc1)NC(=O)OCC1c2ccccc2-c2ccccc21`, in assay [1], the inhibition result is “Active”. Besides, the fold change (FC) in assay [2] is 0.96.
`COC(=O)[C@H](Cc1ccc2c(c1)COP(=O)(O)O2)NC(=O)[C@H](CC(C)C)NC(=O)OCC1c2ccccc2-c2ccccc21`: in assay [1], the inhibition entry was “Active”. The fold change (FC) in assay [2] was found to be 1.17.
Take `COC(=O)[C@H](Cc1ccc2c(c1)COP(=O)(O)O2)NC(=O)CNC(=O)OCC1c2ccccc2-c2ccccc21`: the inhibition result in assay [1] is “Active”. The fold change (FC) in assay [2] amounted to 0.77.
Turning to `C[C@H](NC(=O)[C@H](Cc1ccc2c(c1)COP(=O)(O)O2)NC(=O)OCC1c2ccccc2-c2ccccc21)C(N)=O`, in assay [1], the inhibition entry is “Active”. Further, the fold change (FC) in assay [2] was 1.09.
`COC(=O)[C@H](Cc1ccc2c(c1)COP(=O)(O)O2)NC(=O)[C@H](CCC(=O)NC(c1ccccc1)(c1ccccc1)c1ccccc1)NC(=O)OCC1c2ccccc2-c2ccccc21`: the inhibition result in assay [1] is “Active”. Also, in assay [2], the fold change (FC) was 1.11.
As for `CC(C)C[C@H](NC(=O)[C@H](Cc1ccc2c(c1)COP(=O)(O)O2)NC(=O)OCC1c2ccccc2-c2ccccc21)C(N)=O`, the inhibition result in assay [1] is “Active”. Besides, in assay [2], the fold change (FC) was 0.99.
In the case of `NCCCC[C@H](NC(=O)[C@H](Cc1ccc2c(c1)COP(=O)(O)O2)NC(=O)OCC1c2ccccc2-c2ccccc21)C(N)=O`, the inhibition entry in assay [1] is “Active”. Also, the fold change (FC) in assay [2] was 1.22.
For `NC(=O)C[C@H](NC(=O)[C@H](Cc1ccc2c(c1)COP(=O)(O)O2)NC(=O)OCC1c2ccccc2-c2ccccc21)C(N)=O`, in assay [1], the inhibition result is “Active”. In assay [2], the fold change (FC) was 1.29.
`NC(=O)[C@H](Cc1ccc(O)cc1)NC(=O)[C@H](Cc1ccc2c(c1)COP(=O)(O)O2)NC(=O)OCC1c2ccccc2-c2ccccc21`: the inhibition entry in assay [1] was “Active”. Besides, the fold change (FC) in assay [2] came out at 0.95.
For `COC(=O)[C@H](Cc1ccc2c(c1)COP(=O)(O)O2)NC(=O)[C@H](Cc1c[nH]cn1)NC(=O)OCC1c2ccccc2-c2ccccc21`, the inhibition result in assay [1] was “Active”. Besides, the fold change (FC) in assay [2] came out at 0.89.
As for `COC(=O)[C@H](Cc1ccc2c(c1)COP(=O)(O)O2)NC(=O)[C@H](Cc1ccccc1)NC(=O)OCC1c2ccccc2-c2ccccc21`, the inhibition entry in assay [1] was “Active”. The fold change (FC) in assay [2] was determined as 0.84.
Consider `COC(=O)[C@H](Cc1ccc2c(c1)COP(=O)(O)O2)NC(=O)[C@H](CCCCN)NC(=O)OCC1c2ccccc2-c2ccccc21`, for which the inhibition result in assay [1] was “Active”. Also, in assay [2], the fold change (FC) came to 1.05.
In the case of `Cc1c(C)c(S(=O)(=O)NC(=N)NCCC[C@H](NC(=O)[C@H](Cc2ccc3c(c2)COP(=O)(O)O3)NC(=O)OCC2c3ccccc3-c3ccccc32)C(N)=O)c(C)c2c1OC(C)(C)C2`, the inhibition result in assay [1] was “Active”. In assay [2], the fold change (FC) was determined as 0.94.
For `COC(=O)[C@H](Cc1ccc2c(c1)COP(=O)(O)O2)NC(=O)[C@@H](NC(=O)OCC1c2ccccc2-c2ccccc21)C(C)C` the same measures were “Active” and 1.29.
For `COC(=O)[C@H](Cc1ccc2c(c1)COP(=O)(O)O2)NC(=O)[C@H](CC(=O)OC(C)(C)C)NC(=O)OCC1c2ccccc2-c2ccccc21` the same measures were “Active” and 0.9.
Regarding `COC(=O)[C@H](Cc1ccc2c(c1)COP(=O)(O)O2)NC(=O)[C@H](CCSC)NC(=O)OCC1c2ccccc2-c2ccccc21`, in assay [1], the inhibition entry is “Active”. Also, in assay [2], the fold change (FC) came out at 0.85.
Turning to `COC(=O)[C@H](Cc1ccc2c(c1)COP(=O)(O)O2)NC(=O)[C@H](CO)NC(=O)OCC1c2ccccc2-c2ccccc21`, the inhibition entry in assay [1] was “Active”. Besides, the fold change (FC) in assay [2] was 1.13.
`NC(=O)[C@H](Cc1c[nH]c2ccccc12)NC(=O)[C@H](Cc1ccc2c(c1)COP(=O)(O)O2)NC(=O)OCC1c2ccccc2-c2ccccc21`: the inhibition entry in assay [1] is “Active”. The fold change (FC) in assay [2] amounted to 1.36.
Regarding `CC(C)(C)OC[C@H](NC(=O)[C@H](Cc1ccc2c(c1)COP(=O)(O)O2)NC(=O)OCC1c2ccccc2-c2ccccc21)C(N)=O`, the inhibition result in assay [1] was “Active”. Besides, the fold change (FC) in assay [2] came out at 1.27.
For `COC(=O)[C@H](Cc1ccc2c(c1)COP(=O)(O)O2)NC(=O)[C@@H]1CCCN1C(=O)OCC1c2ccccc2-c2ccccc21` the same measures were “Active” and 0.81.
`NC(=O)[C@H](CCC(=O)NC(c1ccccc1)(c1ccccc1)c1ccccc1)NC(=O)[C@H](Cc1ccc2c(c1)COP(=O)(O)O2)NC(=O)OCC1c2ccccc2-c2ccccc21`: the inhibition result in assay [1] was “Active”. The fold change (FC) in assay [2] is 1.07.
For `COC(=O)[C@H](Cc1ccc2c(c1)COP(=O)(O)O2)NC(=O)[C@H](Cc1ccc(O)cc1)NC(=O)OCC1c2ccccc2-c2ccccc21` the same measures were “Active” and 1.05.
As for `COC(=O)[C@H](Cc1ccc2c(c1)COP(=O)(O)O2)NC(=O)[C@H](Cc1cn(C(=O)OC(C)(C)C)c2ccccc12)NC(=O)OCC1c2ccccc2-c2ccccc21`, in assay [1], the inhibition entry was “Active”. Further, the fold change (FC) in assay [2] was found to be 1.2.
As to `COC(=O)[C@H](Cc1ccc2c(c1)COP(=O)(O)O2)NC(=O)[C@H](CCCCNC(=O)OC(C)(C)C)NC(=O)OCC1c2ccccc2-c2ccccc21`, in assay [1], the inhibition result was “Active”. Further, the fold change (FC) in assay [2] came out at 0.85.
